Reference: US12195452B2, “N-(4-(oxazol-5-yl)phenyl) chromane-3-carboxamide derivatives and related compounds as stimulators of the production of retinal precursor cells for the treatment of neuroretinal diseases” (ENDOGENA THERAPEUTICS, INC., priority 2018, dated 2025)

Tested on: retinal precursor cells
Experiment: Sphere passaging and high-throughput drug screening: proliferation of retinal precursor cells from the ciliary epithelium, cell number after one week
Assay type: cell-based, mammalian
Conditions: control experiment (absence of a compound) = 100; cells grown for one week
Procedure: Kynurenic Acid (0.2 mg/mL), trypsin (1.33 mg/mL), and hyaluronidase (0.67 mg/mL) were weighed out and dissolved in high magnesium/low calcium artificial cerebral spinal fluid (aCSF) at 37° C. Fibroblast growth factor 2 (FGF2; 10 ng/mL) and heparin (2 μg/mL) were added to 100 mL of serum-free media (SFM). Ovomucoid trypsin inhibitor (1 mg/mL) was dissolved in warm SFM and sterile filtered ([…]).
A dissecting microscope, cold light source, and sterile surgical instruments were set up inside of a sterile biological safety cabinet (BSC). Mammalian eyes were enucleated and placed in a petri dish containing cold, sterile aCSF. Under the dissecting microscope, hair, connective tissue, and the dorsal and ventral oblique muscles were cleared from the scleral/corneal border with two sets of forceps. Next, curved or angled micro-dissecting scissors were used to cleave any remaining extraocular muscle tissue, the optic nerve, and cut the eyeball into symmetrical halves; beginning and finishing the cut from the hole left by the optic nerve. Using two sets of forceps to grasp the cornea, the two eye halves were peeled apart. The lens, optic nerve, and vitreous were separated from the eye shells and the eye shells were transferred into a new petri dish (also containing cold, sterile aCSF). To isolate the ciliary epithelium (CE), eye shells were oriented with the cornea on the right and retinal pigmented epithelium (RPE) on the left. A pair of straight forceps were used to pin down the eye shell on the RPE side while a scalpel blade was inserted between the CE and the iris, using pressure to slice the iris/cornea side off from the rest of the shell. Next, the scalpel was run along the border between the CE and the RPE to obtain the CE isolated as a thin strip of tissue. The CE strips were then transferred to a 35 mm dish containing 2 mL of dispase solution (Sigma; T1005) and incubated for 10 minutes at 37° C. Next, the strips were transferred from dispase into a 35 mm dish containing 2 mL of sterile filtered kynurenic acid, trypsin and hyaluronidase solution and incubated at 37° C. for 10 minutes. After incubation, the dish was returned to the dissecting scope, and the CE strips were pinned down with straight, non-serrated forceps, while non-serrated curved forceps were used to scrape the CE off from the underlying sclera. The bare scleral strips were then discarded, such that only the CE cells remained in the enzyme solution. Using a fire-polished, cotton-plugged glass pipette, the cells and enzyme solution were transferred to a 15 mL tube and triturated approximately 45 times to break apart the tissue. The 15 mL tube/cell suspension was centrifuged for 5 minutes at 1500 rpm. The supernatant was gently aspirated from the resulting pellet using a fire-polished, cotton-plugged glass pipette and 2 mL of trypsin inhibitor solution was added to the pellet. Using a small borehole, fire-polished, cotton-plugged glass pipette, the sample was triturated approximately 45 times until it was a single-cell suspension. The 15 mL tube/cell suspension was centrifuged for 5 minutes at 1500 rpm. The supernatant was gently aspirated from the resulting pellet and 1-2 mL of SFM with FGF2 and heparin (plating media) was added. The cells and media were mixed to ensure a uniform cell suspension and a 10 uL sample was taken and cell density was determined. The cells were then seeded and cultured at 10c/μL in culture-treated plates or flasks. After one week, roughly 1 in 500 cells proliferated to form free-floating, clonal spheres greater than 80 μm in diameter.
Human-derived spheres were passaged using the kynurenic acid, trypsin, hyaluronidase enzyme solution with the addition of collagenase I (0.5 mg/mL), collagenase II (0.5 mg/mL) and elastase (0.1 mg/mL). Mouse-derived spheres were passaged using hyaluronidase (0.67 mg/mL), collagenase I (0.5 mg/mL), and collagenase II (0.5 mg/mL) dissolved in Accustase solution (Sigma; SCR005). […]

Row | Compound | Cell proliferation within one week [%]
1 | O=C(CC1Cc2ccccc2O1)Nc1ccc(-c2cnco2)c(Cl)c1 (racemic) [Compound 34, N-(3-chloro-4-(oxazol-5-yl)phenyl)-2-(2,3-dihydrobenzofuran-2-yl)acetamide] | 129
2 | O=C(Nc1ccc(-c2cnco2)c(Cl)c1)C1COc2ccccc21 (racemic) [Compound 35, N-(3-chloro-4-(oxazol-5-yl)phenyl)-2,3-dihydrobenzofuran-3-carboxamide] | 125
3 | O=C(Nc1ccc(-c2cnco2)c(Cl)c1)C1Cc2ccccc2C1 (racemic) [Compound 36, N-(3-chloro-4-(oxazol-5-yl)phenyl)-2,3-dihydro-1H-indene-2-carboxamide] | 124
4 | O=C(Nc1ccc(-c2cnco2)c(Cl)c1)C1COc2cc(F)ccc2C1 (racemic) [Compound 37, N-(3-chloro-4-(oxazol-5-yl)phenyl)-7-fluorochromane-3-carboxamide] | 158
5 | O=C(Nc1ccc(-c2cnco2)c(Cl)c1)C1COc2ccc(Cl)cc2C1 (racemic) [Compound 38, 6-chloro-N-(3-chloro-4-(oxazol-5-yl)phenyl)chromane-3-carboxamide] | 122
6 | O=C(Nc1ccc(-c2cnco2)c(Cl)c1)C1COc2c(F)cc(F)cc2C1 (racemic) [Compound 39, N-(3-chloro-4-(oxazol-5-yl)phenyl)-6,8-difluorochromane-3-carboxamide] | 132
7 | COc1cccc2c1CC(C(=O)Nc1ccc(-c3cnco3)c(Cl)c1)CO2 (racemic) [Compound 40, N-(3-chloro-4-(oxazol-5-yl)phenyl)-5-methoxychromane-3-carboxamide] | 107
8 | O=C(Nc1ccc(-c2cnco2)c(Cl)c1)C1COc2ccccc2O1 (racemic) [Compound 41, N-(3-chloro-4-(oxazol-5-yl)phenyl)-2,3-dihydrobenzo[b][1,4]dioxine-2-carboxamide] | 114
9 | O=C(Nc1ccc(-c2cnco2)c(Cl)c1)C1COc2ccccc2C1 (single isomer, unassigned; (-)) [Compound 21, (−)-N-(3-chloro-4-(1,3-oxazol-5-yl)phenyl)chromane-3-carboxamide] | 126
10 | Cc1cc(NC(=O)C2COc3ccccc3C2)ccc1-c1cnco1 (centres unmarked) [Compound 25, N-(3-methyl-4-(oxazol-5-yl)phenyl)chromane-3-carboxamide] | 120
11 | O=C(Nc1ccc(-c2cnco2)c(Cl)c1)C1COc2ccc(F)cc2C1 (centres unmarked) [Compound 42, N-(3-chloro-4-(oxazol-5-yl)phenyl)-6-fluorochromane-3-carboxamide] | 124
12 | N-(2-(difluoromethoxy)-4-(oxazol-5-yl)phenyl)chroman-3-carboxamide [Compound 26] | 138
13 | N-(2-(difluoromethoxy)-4-(oxazol-5-yl)phenyl)chroman-3-carboxamide [Compound 27] | 106

Same assay, conditions: within one week, over control

Row | Compound | increase of cell proliferation [%]
14 | O=C(Nc1ccc(-c2cnco2)c(Cl)c1)C1COc2ccc(Cl)cc2C1 (racemic) [Compound 38, 6-chloro-N-(3-chloro-4-(oxazol-5-yl)phenyl)chromane-3-carboxamide] | 58
